Experimental findings from PubChem BioAssay AID330 (DTP/NCI, 2004) are described below.

Several values for one entry are separate records, joined by “and”; a condition that tells them apart may be missing. Equal entries are not always repeated. Inconclusive results and toxic doses are left out.

The assay concerns P388 leukemia ip, CD2F1 mice, survival T/C. The experiment in a line: NCI In Vivo Anticancer Drug Screen. Data for tumor model P388 Leukemia (intraperitoneal) in CD2F1 (CDF1) mice. To be noted: endpoint: median survival time, higher = longer survival. A digest of the protocol:
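Mice carrying the transplanted tumor received test compound or vehicle. Survival was recorded in each group, and the value is the treated-group measurement divided by that of the vehicle-treated control group.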

The mark [1] stands for this setting: dose: 100.0 mg/kg/injection, schedule: Q01DX009 (ip), vehicle: saline with Tween-80.
[2] abbreviates: dose: 100.0 mg/kg/injection, schedule: Q01DX005 (ip), vehicle: saline.

Regarding `CCCCCCC(C(=O)OCC)P(=O)(OCC)OCC` (stereo not given), the T/C was 90 % of control (dose: 18.75 mg/kg/injection, schedule: Q01DX009 (ip), vehicle: saline sonified); 95 % of control (dose: 37.5 mg/kg/injection, schedule: Q01DX009 (ip), vehicle: saline sonified); 100 % of control (dose: 75.0 mg/kg/injection, schedule: Q01DX009 (ip), vehicle: saline sonified).
Consider `CC(C)Nc1ncnc2[nH]ncc12`, for which the T/C runs as follows: (dose: 16.0 mg/kg/injection, schedule: Q01DX009 (ip), vehicle: Klucel (hydroxypropylcellulose) (HPC)) 101 % of control; (dose: 32.0 mg/kg/injection, schedule: Q01DX009 (ip), vehicle: Klucel (hydroxypropylcellulose) (HPC)) 97 % of control; (dose: 64.0 mg/kg/injection, schedule: Q01DX009 (ip), vehicle: Klucel (hydroxypropylcellulose) (HPC)) 87 % of control.
On to `COc1cc(OC)c(NC(=O)Oc2cc(C)c(I)cc2C)cc1Cl`, for which the T/C is 118 % of control (dose: 6.25 mg/kg/injection, schedule: Q01DX009 (ip), vehicle: saline); 96 % of control (dose: 12.5 mg/kg/injection, schedule: Q01DX009 (ip), vehicle: saline); 93 % of control (dose: 25.0 mg/kg/injection, schedule: Q01DX009 (ip), vehicle: saline); 98 % of control (dose: 100.0 mg/kg/injection, schedule: Q01DX009 (ip), vehicle: saline + alcohol); 95 % of control (dose: 200.0 mg/kg/injection, schedule: Q01DX009 (ip), vehicle: saline + alcohol).
In the case of `CC(C)(C)NC(=O)C(F)(F)C(F)(F)C(F)(F)C(=O)NC(C)(C)C`, the T/C was 91 % of control (dose: 100.0 mg/kg/injection, schedule: Q04DX003 (ip), vehicle: saline); 100 % of control (dose: 200.0 mg/kg/injection, schedule: Q04DX003 (ip), vehicle: saline); 99 % of control (dose: 400.0 mg/kg/injection, schedule: Q04DX003 (ip), vehicle: saline).
Consider `O/N=C1\CCC2CCCCC12` (stereo not given), for which the T/C runs as follows: (dose: 50.0 mg/kg/injection, schedule: Q01DX005 (ip), vehicle: Klucel (hydroxypropylcellulose) (HPC)) 98 % of control; (dose: 100.0 mg/kg/injection, schedule: Q01DX005 (ip), vehicle: Klucel (hydroxypropylcellulose) (HPC)) 102 % of control; (dose: 200.0 mg/kg/injection, schedule: Q01DX005 (ip), vehicle: Klucel (hydroxypropylcellulose) (HPC)) 107 % of control.
In the case of `O=C1C=C2C=CC3CC2(O1)C1CCCCN31` (stereo not given), the T/C (dose: 6.25 mg/kg/injection, schedule: Q04DX002 (ip), vehicle: saline with Tween-80) was 113 % of control; the T/C (dose: 10.0 mg/kg/injection, schedule: Q01DX010 (ip), vehicle: saline) was 90 % of control; the T/C (dose: 12.5 mg/kg/injection, schedule: Q04DX002 (ip), vehicle: saline with Tween-80) is 106 % of control; the T/C (dose: 20.0 mg/kg/injection, schedule: Q01DX010 (ip), vehicle: saline) was 90 % of control; the T/C (dose: 25.0 mg/kg/injection, schedule: Q01DX010 (ip), vehicle: saline) is 90 % of control and 110 % of control; the T/C (dose: 25.0 mg/kg/injection, schedule: Q04DX002 (ip), vehicle: saline with Tween-80) was 106 % of control. The T/C by setting is: (dose: 50.0 mg/kg/injection, schedule: Q01DX010 (ip), vehicle: saline) 100 % of control and 110 % of control; (dose: 100.0 mg/kg/injection, schedule: Q01DX010 (ip), vehicle: saline) 100 % of control and 120 % of control.
For the molecule `NC(CSCCCCl)C(=O)O` (stereo not given), the T/C is 95 % of control (dose: 50.0 mg/kg/injection, schedule: Q01DX009 (ip), vehicle: saline); 95 % of control (dose: 100.0 mg/kg/injection, schedule: Q01DX009 (ip), vehicle: saline); 97 % of control (dose: 200.0 mg/kg/injection, schedule: Q01DX009 (ip), vehicle: saline).
As for `O=C1SC(c2ccccc2)(c2ccccc2)c2cscc21`, the T/C was 92 % of control (dose: 25.0 mg/kg/injection, schedule: Q01DX009 (ip), vehicle: saline with Tween-80); 94 % of control (dose: 50.0 mg/kg/injection, schedule: Q01DX009 (ip), vehicle: saline with Tween-80); 99 % of control under setting [1]; 90 % of control (dose: 200.0 mg/kg/injection, schedule: Q01DX009 (ip), vehicle: saline with Tween-80).
For the molecule `N#Cc1c(-c2ccc(Cl)cc2)c(-c2ccc(Cl)cc2)nn(CCOC(=O)CCC(=O)O)c1=O`, the T/C is 100 % of control (dose: 3.13 mg/kg/injection, schedule: Q01DX005 (ip), vehicle: distilled water + Tween-80); 100 % of control (dose: 6.25 mg/kg/injection, schedule: Q01DX005 (ip), vehicle: distilled water + Tween-80); 105 % of control (dose: 12.5 mg/kg/injection, schedule: Q01DX005 (ip), vehicle: distilled water + Tween-80); 104 % of control (dose: 12.5 mg/kg/injection, schedule: Q01DX005 (ip), vehicle: saline); 103 % of control (dose: 12.5 mg/kg/injection, schedule: Q01DX005 (ip), vehicle: sodium bicarbonate); 106 % of control (dose: 12.5 mg/kg/injection, schedule: Q04DX002 (ip), vehicle: distilled water + Tween-80). In addition, the T/C is, setting by setting: (dose: 25.0 mg/kg/injection, schedule: Q01DX005 (ip), vehicle: distilled water + Tween-80) 114 % of control and 117 % of control; (dose: 25.0 mg/kg/injection, schedule: Q01DX005 (ip), vehicle: saline) 112 % of control; (dose: 25.0 mg/kg/injection, schedule: Q01DX005 (ip), vehicle: sodium bicarbonate) 112 % of control; (dose: 25.0 mg/kg/injection, schedule: Q04DX002 (ip), vehicle: distilled water + Tween-80) 105 % of control and 113 % of control; (dose: 50.0 mg/kg/injection, schedule: Q01DX005 (ip), vehicle: distilled water + Tween-80) 172 % of control and 184 % of control; under setting [2], 180 % of control. In addition, the T/C runs as follows: (dose: 100.0 mg/kg/injection, schedule: Q01DX005 (ip), vehicle: sodium bicarbonate) 202 % of control; (dose: 100.0 mg/kg/injection, schedule: Q04DX002 (ip), vehicle: distilled water + Tween-80) 115 % of control and 92 % of control.
For `Cc1cc2nc3ccc(N=Nc4ccc(N(C)C)cc4)cc3n(-c3ccccc3)c-2cc1=N`, the T/C was 113 % of control and 118 % of control (dose: 0.39 mg/kg/injection, schedule: Q01DX009 (ip), vehicle: saline); 119 % of control (dose: 0.78 mg/kg/injection, schedule: Q01DX009 (ip), vehicle: saline).
`CC(CC(C)C)=NC(C)CC(C)C` (stereo not given): the T/C is, setting by setting: (dose: 50.0 mg/kg/injection, schedule: Q01DX005 (ip), vehicle: saline) 97 % of control; under setting [2], 95 % of control.
`CCOC(=O)c1[nH]cnc1/N=N/N(C)C`: the T/C was 90 % of control under setting [1]; 120 % of control (dose: 150.0 mg/kg/injection, schedule: Q04DX003 (ip), vehicle: saline with Tween-80); 150 % of control (dose: 200.0 mg/kg/injection, schedule: Q04DX003 (ip), vehicle: saline with Tween-80).
With `Cc1ccc(NCC2CCCN3CCCCC23)c2c(=O)c3cc(O)ccc3sc12` (stereo not given), the T/C (dose: 100.0 mg/kg/injection, schedule: Q04DX002 (ip), vehicle: saline with Tween-80) was 97 % of control and the T/C (dose: 200.0 mg/kg/injection, schedule: Q04DX002 (ip), vehicle: saline with Tween-80) is 102 % of control.
